# Legend:
# [1] = no method and no reference printed for this sentence, next sentence ref 22, cited from earlier work
# Method: P021 is quite stable in artificial gastric juice (~ 90% during 30 min) and in artificial intestinal juice (> 95% during 120 min).
# [2] = tested on: 3xTg-AD mice; settings: chronic treatment, moderate and severe stages of the pathology; cited from earlier work
# Source text: (§1) Chronic treatment with P021 ...
# [3] = tested on: aged Fisher rats; settings: oral administration; cited from earlier work
# Source text: as §1
# [4] = tested on: GFAP; experiment: GFAP immunofluorescence, CA1; type: in vivo, mouse; settings: P021 diet E8-PND21
# Method: We treated 2- to 3-month-old pregnant 3xTg-AD and WT mothers with compound P021 in mouse chow, or with vehicle feed as control at E8 until their offspring/pups reached PND21, at which point the offspring were separated and put on standard mouse chow (Fig. 1). Treatment was administered as 60 nmol peptide/g formulated diet (Research Diets; New Brunswick, NJ, USA). The vehicle-treated control animals received the same diet but without the peptide. On average, each mouse consumed ~ 2.7 g diet/day.
# The complete right hemisphere was immersion-fixed in 4% paraformaldehyde in 0.1 M PBS for 24–48 h, followed by cryoprotection in a 30% sucrose solution at 4 °C overnight. Later, the 40-μm-thick sagittal sections were cut on a freezing microtome. […]
# Immunofluorescence staining was performed on free-floating sections, and every 12th brain section was chosen for densitometry and quantification. For immunohistochemical quantification, six brain sections of four animals per group were analyzed. All stainings for fluorescence-intensity quantification were carried out under identical conditions, including all tissue samples for a particular staining processed at the same time, and experimental and control sections photographed under identical settings. […]
# [5] = tested on: 3xTg-AD mice; experiment: Morris water maze; type: in vivo, mouse; settings: ~4 months
# Method: Pregnant 3xTg-AD and wild-type (WT) mice were treated with compound P021 in mouse chow, or as control with vehicle feed from gestational day 8 (E8) till their offspring/pups reached PND21, at which point the offspring were separated from their mother and put on normal mouse chow (Fig. 1). There were four study groups of mice, as follows: offspring of WT treated with vehicle diet (WT-Vh, n = 10), offspring of WT treated with […] diet (WT-[…], n = 17), offspring of 3xTg-AD treated with vehicle diet (3xTg-Vh, n = 12), and offspring of 3xTg-AD treated with […] diet (3xTg-[…], n = 18). Elevated plus maze, novel object recognition test, and Morris water maze were carried out consecutively from postnatal day 90 with all of mice. About 50% (4 animals/group) of the female offspring (n = 7-8 animals/group) were sacrificed at 4 months of age and the remaining 50% (3-4 animals/group) at 22 months of age. Left cerebral hemisphere homogenate was used for biochemical analysis and right cerebral hemisphere for immunohistochemical studies. We treated 2- to 3-month-old pregnant 3xTg-AD and WT mothers with compound P021 in mouse chow, or with vehicle feed as control at E8 until their offspring/pups reached PND21, at which point the offspring were separated and put on standard mouse chow (Fig. 1). Treatment was administered as 60 nmol peptide/g formulated diet (Research Diets; New Brunswick, NJ, USA). The vehicle-treated control animals received the same diet but without the peptide. On average, each mouse consumed ~ 2.7 g diet/day. The Morris water maze task was used to evaluate spatial learning and memory of the mice. A total of 57 mice were subjected to the Morris water maze task at about 4 months of age. The test was performed in a circular white pool (with a diameter of 180 cm and a height of 60 cm) filled with nontoxic white dye-tinted water and maintained at room temperature (20 ± 1 °C). The maze was designed with two virtual principal axes, with each line bisecting the maze perpendicular to the other one to divide the maze into four equal quadrants. […]
substance,measurement,setting,value
"Ac-DGGL^AG-NH2 [P021, 4-mer CNTF small molecule peptide mimetic to which adamantylated glycine was added at the C-terminal]",stability in artificial gastric juice,[1]; during 30 min,~ 90%
same,stability in artificial intestinal juice,[1]; during 120 min,> 95%
same,tau pathology,[2],significantly reduced
same,cognitive aging,[3],could rescue cognitive aging
same,astrocyte morphology at high magnification,"[4]; CA1, 22-month-old 3xTg-AD mice, 3xTg-Vh astrocytes amoeboid",ramified with long processes and small cell body (resting phenotype)
same,GFAP immunoreactivity,"[4]; CA1 region, 22-month-old 3xTg-AD mice",rescued
same,"escape latency to reach the hidden platform, acquisition phase","[5]; 3xTg-AD offspring, P021 diet E8-PND21, 4 training days, three-way ANOVA treatment P = 0.1088, t test 3xTg-Vh vs 3xTg-P021 P < 0.05",did not prevent it as determined by the three-way ANOVA but showed a clear tendency as determined by the two-tailed t test
same,"latency to first entrance into the target zone, probe trial","[5]; 3xTg-AD offspring, P021 diet E8-PND21, probe 24 h after last training, 3xTg-Vh vs 3xTg-P021 P = 0.0132",decreased the latency significantly
same,swim speed and cued trial,"[5]; among WT-Vh, WT-P021, 3xTg-Vh, 3xTg-P021 groups",no significant difference
